Experimental data from the supplement of paper PMC11061612.

Assays:
[1] = test system: BICR10 (Oral Cavity Carcinoma); test: Bliss excess, mean over the matrix (fraction); higher = more synergy
How it was run: (§1)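 Cell lines in DMEM/F12 or RPMI with 10% FBS were plated in 1536-well plates, held 24 hours at 37°C, 5% CO2, then given two-drug dose matrices for 72 hours (DMSO typically 0.2%). Viability was read by CellTiter-Glo 2.0 luminescence and scaled as inhibition from 0 (vehicle wells) to 1 (blank wells). Combination Emax is the second-highest inhibition in the matrix; Bliss excess is observed combination effect minus expected EA + EB − EA·EB, EA and EB being single-agent effects.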

[2] = test system: OCI-AML3 (Acute Myeloid Leukemia); test: as above
How it was run: as §1

[3] = test system: BICR10 (Oral Cavity Carcinoma); test: combination Emax (second highest fraction inhibited in the dose matrix, 72 h); higher = more inhibition; extreme values may be limits of the assay
How it was run: as §1

[4] = test system: KMS-12-BM (Plasma Cell Myeloma); test: as above
How it was run: as §1

[5] = test system: OCI-AML3 (Acute Myeloid Leukemia); test: as above
How it was run: as §1

[6] = test system: VMRC-RCZ (Kidney Carcinoma); test: as above
How it was run: as §1
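For Bliss excess, mean over the matrix in this document: after 72 h of two-drug dosing.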

| Structure (SMILES) | Bliss excess [1] | Bliss excess [2] | combination Emax [3] | combination Emax [4] | combination Emax [5] | combination Emax [6] |
| --- | --- | --- | --- | --- | --- | --- |
| CN(C)CCCOc1ccc(-c2ccc3ncc4c(c3c2)n(C2CCOCC2)c(=O)n4C)cn1 [AZD0156] + O=C(c1cc(Cc2n[nH]c(=O)c3ccccc23)ccc1F)N1CCN(C(=O)C2CC2)CC1 [Olaparib] (first compound max 3 µM, partner max 3 µM) | 0.0275 | 0.128 | 0.348 | 0.438 | 0.392 | 0.181 |
| COc1nnc2ccc(N3CCC(c4ccc(OCCN5CCN(C)C(=O)[C@H]5C)cc4)CC3)nn12 [AZD5153] + Cc1c2c(nn1C)CSCc1cc(n(C)n1)CSc1cc(c3ccccc3c1)OCCCc1c(C(=O)O)n(C)c3c-2c(Cl)ccc13 [AZD5991] (first compound max 1 µM, 7x7, partner max 1 µM) | – | -0.0565 | – | 1 | 1 | 0.323 |
| CC(=O)c1c(C)c2cnc(Nc3ccc(N4CCNCC4)cn3)nc2n(C2CCCC2)c1=O [Palbociclib] + Cc1c2c(nn1C)CSCc1cc(n(C)n1)CSc1cc(c3ccccc3c1)OCCCc1c(C(=O)O)n(C)c3c-2c(Cl)ccc13 [AZD5991] (first compound max 10 µM, 7x7, partner max 1 µM) | – | 0.0376 | – | 1 | 1 | 0.194 |
| COc1nnc2ccc(N3CCC(c4ccc(OCCN5CCN(C)C(=O)[C@H]5C)cc4)CC3)nn12 [AZD5153] + CCN(CCO)CCCOc1ccc2c(Nc3cc(CC(=O)Nc4cccc(F)c4)[nH]n3)ncnc2c1 [AZD2811] (first compound max 1 µM, 7x7, partner max 1 µM) | – | 0.05 | – | 0.998 | 1 | 0.367 |
| C[C@@H](c1ccc2nccn2c1)n1nnc2ncc(-c3cnn(C)c3)nc21 [Savolitinib] + Cc1c2c(nn1C)CSCc1cc(n(C)n1)CSc1cc(c3ccccc3c1)OCCCc1c(C(=O)O)n(C)c3c-2c(Cl)ccc13 [AZD5991] (first compound max 1 µM, 7x7, partner max 1 µM) | – | -0.0103 | – | 1 | 0.967 | 0.134 |
| CC(=O)c1c(C)c2cnc(Nc3ccc(N4CCNCC4)cn3)nc2n(C2CCCC2)c1=O [Palbociclib] + CC1(C)CCC(CN2CCN(c3ccc(C(=O)NS(=O)(=O)c4ccc(NCC5CCOCC5)c([N+](=O)[O-])c4)c(Oc4cnc5[nH]ccc5c4)c3)CC2)=C(c2ccc(Cl)cc2)C1 [Venetoclax] (first compound max 10 µM, 7x7, partner max 1 µM) | – | -0.0679 | – | 1 | 0.585 | 0.105 |
| Cn1cnc2c(F)c(Nc3ccc(Br)cc3Cl)c(C(=O)NOCCO)cc21 [Selumetinib] + CCN(CCO)CCCOc1ccc2c(Nc3cc(CC(=O)Nc4cccc(F)c4)[nH]n3)ncnc2c1 [AZD2811] (first compound max 10 µM, 7x7, partner max 1 µM) | – | 0.0086 | – | 0.397 | 0.949 | 0.152 |
| C=CCn1c(=O)c2cnc(Nc3ccc(N4CCN(C)CC4)cc3)nc2n1-c1cccc(C(C)(C)O)n1 [AZD1775] + C1CN(CCC1(C(=O)N[C@@H](CCO)C2=CC=C(C=C2)Cl)N)C3=NC=NC4=C3C=CN4 [Capivasertib] (first compound max 3 µM, partner max 3 µM) | -0.0418 | 0.0051 | 0.829 | 0.984 | 0.914 | 0.359 |
| CS(=O)(=O)CCNCc1ccc(-c2ccc3ncnc(Nc4ccc(OCc5cccc(F)c5)c(Cl)c4)c3c2)o1 [Lapatinib] + C[C@@H](Oc1cc(-c2cnn(C3CCNCC3)c2)cnc1N)c1c(Cl)ccc(F)c1Cl [Crizotinib] (first compound max 10 µM, 7x7, partner max 10 µM) | – | -0.0235 | – | 0.965 | 0.846 | 0.365 |
